Assays:
[1] = tested on: human neural stem cells as well as human astrocytes; assay: Cell viability of non-tumour neural cells; type: cell-based; details: at the equivalent concentration
[2] = molecular target: ERβ (Homo sapiens, UniProt Q92731); assay: ERβ agonist assay (functional activity at estrogen receptors, FIG. 1); type: cell-based; details: for selectivity over ERα: ERβ over ERα, relative to 17β-estradiol; for EC50: read-out: EC50 ERβ agonism
Protocol: FIG. 1 is a set of line graphs showing the results of ERβ and ERα agonist assays for Compounds 100 and 101.
Compounds 100 and 101 were evaluated for their functional activity at estrogen receptors (both ERα and ERβ). 17β-estradiol was used as a control, as it is appreciated to be a potent agonist of both ERα and ERβ.

[3] = Initial in vivo toxicity studies
Description: In comparison to 17β-estradiol, Compound 100 and Compound 101 have a unique profile for selective agonism of ERβ (FIG. 1).

[4] = tested on: U251 and U87 cells; assay: Growth inhibition and viable cell counts of glioblastoma-derived cell lines; type: cell-based, human; details: U251 and U87, after 24 hours, versus TMZ
Protocol: FIG. 3A-3B are line graphs depicting (A) dose dependent growth inhibition of U251 and U87 cells treated with Compound 100, Compound 101, TMZ, and vehicle control DMSO (n=4) and (B) viable cell counts of U251 and U87 cells treated with Compound 100, Compound 101, TMZ, and vehicle control DMSO determined every 24 hours for 96 hours (n=4)
To determine the biological effect of Compound 100 and Compound 101, human glioblastoma-derived cell lines U251 and U87 were treated with varying concentrations of Compound 100, Compound 101, temazolomide (TMZ; a standard of care chemotherapeutic agent), or vehicle-toxicity control, dimethylsulfoxide (DMSO) used at final volumes that were identical to those used to attain all concentrations tested of Compound 100 and Compound 101.

[5] = tested on: U251 and U87 cells; assay: Apoptosis by Annexin V / 7-AAD FACS analysis; type: cell-based, human; details: U251 and U87, 24 hours
Protocol: FIG. 3C is a flow cytometric analysis of U251 and U87 co-stained with Annexin V-FITC/7-AAD after treatment with Compound 100, Compound 101, TMZ, and vehicle control DMSO (n=4).
In order to elucidate the mechanism of this cell death, glioblastoma cells treated for 24 hours with Compound 100, Compound 101, TMZ, or DMSO control were analyzed for early and late apoptosis markers (Annexin V and 7-Aminoactinomycin D) by FACS analyses. […] Additionally, over a period of five days, morphological changes in U251 and U87 cells treated with Compound 100 and Compound 101 were tracked using the Incucyte live cell imaging system.

[6] = tested on: ERβ; assay: Alkaline phosphatase (ALP) activity in DU-145 prostate cancer cells expressing endogenous ERβ; type: cell-based, human; details: DU-145 cells, 24 hours, 5 μM
Protocol: FIG. 2 is a bar graph showing alkaline phosphatase activity in human DU-145 prostate cancer cells (17β-estradiol, Compound 100, and Compound 101 were evaluated at 5 μM).
The DU-145 prostate cancer cell line only expresses ERβ and can be used as a model to examine the activation of ERβ in the absence of any potential confounding signal driven by ERα. Alkaline phosphatase (ALP) expression is induced in an ER-dependent manner and has been used to characterize the activity of synthetic ER agonists and antagonists.
In order to examine the ability of Compound 100 and Compound 101 to activate ERβ in the context of a cell line expressing endogenous ERβ, DU-145 cells were treated for 24 hours with either 17β-estradiol, Compound 100, or Compound 101 and ALP activity derived from the cells was examined.

Chain of ERβ (Homo sapiens, UniProt Q92731) (Q92731 whole entry): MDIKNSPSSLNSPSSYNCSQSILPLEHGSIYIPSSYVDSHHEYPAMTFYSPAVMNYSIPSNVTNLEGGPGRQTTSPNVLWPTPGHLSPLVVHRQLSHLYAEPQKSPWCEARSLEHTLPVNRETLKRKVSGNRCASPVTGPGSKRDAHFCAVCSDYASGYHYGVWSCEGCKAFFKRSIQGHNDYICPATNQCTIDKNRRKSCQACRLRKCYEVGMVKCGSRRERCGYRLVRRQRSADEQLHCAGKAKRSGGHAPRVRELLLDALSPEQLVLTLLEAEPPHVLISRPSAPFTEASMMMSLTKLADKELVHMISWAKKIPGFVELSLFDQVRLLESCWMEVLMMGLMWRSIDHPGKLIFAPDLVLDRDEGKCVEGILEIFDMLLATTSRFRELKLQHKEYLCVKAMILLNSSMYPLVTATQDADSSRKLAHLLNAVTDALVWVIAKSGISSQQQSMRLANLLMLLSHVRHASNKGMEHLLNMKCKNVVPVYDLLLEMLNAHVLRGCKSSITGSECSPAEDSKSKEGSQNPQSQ

Row | Structure (SMILES) | cell viability of human neural stem cells and human astrocytes [1] | selectivity over ERα [2] | EC50 [2] | in vivo toxicity [3] | inhibition of glioma cell growth (IC50): fold lower concentration compared to TMZ [4] | induction of apoptosis, fold higher than TMZ or DMSO controls [5] | induction of ALP activity [6]
1 | C[C@@]12CC[C@]3(C)C(=C1C[C@H](O)C2)CCc1cc(O)ccc13 [Compound 101, (9R,13S,16R)-9,13-dimethyl-7,9,11,12,13,15,16,17-octahydro-6H-cyclopenta[a]phenanthrene-3,16-diol] | not affected | ~6 fold | 1.9 nM | neither compound is toxic | 50 fold | 7 fold | –
2 | C[C@]12CC[C@@]3(C)C(=C1C[C@@H](O)C2)CCc1cc(O)ccc13 [Compound 100, (9S,13R,16S)-9,13-dimethyl-7,9,11,12,13,15,16,17-octahydro-6H-cyclopenta[a]phenanthrene-3,16-diol] | not affected | > 260 fold | 0.05 nM | neither compound is toxic | 50 fold | 7 fold | –
3 | C[C@]12CC[C@@H]3c4ccc(O)cc4CC[C@H]3[C@@H]1CC[C@@H]2O [17β-estradiol] | – | – | – | – | – | – | effective in inducing ALP activity
